Values of other authors as cited in publication PMC9389927 (Renal Failure, 2022).

System: experimental model of AKI

## IGF-1: long-chain polypeptide composed of dozens of amino acids, including four domains, A, B, C and D
  Glomerular filtration rate: increased the glomerular filtration rate
